Test results as given in ChEMBL document CHEMBL1201862, “PubChem BioAssay data set” (2004).
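Step 1: Grow cells in 96-well plates. Step 2: Expose to compound for 48 hours at 5 concentrations. Step 3: Interpolate endpoints linearly; if unreached, use highest concentration. GI50 marks 50% less growth.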 Active and inactive are the calls of the source. No stated cut-off is given here; in the data, active = GI50 up to about 1.1 µM and inactive = higher.

Columns and labels:
Test in all cases: DTP human tumour cell line panel, 48 h
SF-539 = system: SF-539
COLO 205 = system: COLO 205
K562 = system: K562
SK-MEL-5 = system: SK-MEL-5
HOP-62 = system: HOP-62
SR = system: SR
SK-MEL-28 = system: SK-MEL-28
NCI-H226 = system: NCI-H226
UO-31 = system: UO-31
OVCAR-5 = system: OVCAR-5
A498 = system: A498
HT-29 = system: HT-29
CAKI-1 = system: CAKI-1
MOLT-4 = system: MOLT-4
SK-OV-3 = system: SK-OV-3
IGROV-1 = system: IGROV-1
SN12C = system: SN12C
786-0 = system: 786-0
SK-MEL-2 = system: SK-MEL-2
HCT-15 = system: HCT-15

## CC1=C(NC(=O)C(=O)NNC(=O)c2ccncc2)C(=O)c2ccccc2C1=O
SF-539
  GI50: 17.2 µM (inactive)
COLO 205
  GI50: 17.3 µM (inactive)
K562
  GI50: 24.1 µM (inactive)
SK-MEL-5
  GI50: 1.98 µM (inactive)
HOP-62
  GI50: 17.5 µM (inactive)
SR
  GI50: 9.12 µM (inactive)
SK-MEL-28
  GI50: 17.3 µM (inactive)
NCI-H226
  GI50: 14.2 µM (inactive)
UO-31
  GI50: 18 µM (inactive)
OVCAR-5
  GI50: 17 µM (inactive)
A498
  GI50: 23.8 µM (inactive)
HT-29
  GI50: 15.5 µM (inactive)
CAKI-1
  GI50: 22.8 µM (inactive)
MOLT-4
  GI50: 20.8 µM (inactive)
SK-OV-3
  GI50: 28.1 µM (inactive)
IGROV-1
  GI50: 12.7 µM (inactive)
SN12C
  GI50: 11.8 µM (inactive)
786-0
  GI50: 18.2 µM (inactive)
SK-MEL-2
  GI50: 2.3 µM (inactive)
HCT-15
  GI50: 12.4 µM

## C[C@@H]1C[C@H](O)[C@]2(O)O[C@@H]3C[C@@]4(C=O)[C@@H](CC[C@@H]5[C@@H]4CC[C@]4(C)[C@@H](C6=CC(=O)OC6)CC[C@]54O)C[C@H]3O[C@@H]2O1 [CALOTROPIN]
SF-539
  GI50: 0.0212 µM (active)
COLO 205
  GI50: 0.0726 µM (active)
K562
  GI50: 0.0365 µM (active)
SK-MEL-5
  GI50: 0.0278 µM (active)
HOP-62
  GI50: 0.0244 µM (active)
SR
  GI50: 0.0181 µM (active)
SK-MEL-28
  GI50: 0.112 µM (active)
NCI-H226
  GI50: 0.0815 µM (active)
UO-31
  GI50: 0.0583 µM (active)
OVCAR-5
  GI50: 0.126 µM (active)
A498
  GI50: 0.0531 µM (active)
HT-29
  GI50: 0.0425 µM (active)
CAKI-1
  GI50: 0.023 µM (active)
MOLT-4
  GI50: 0.0163 µM (active)
SK-OV-3
  GI50: 0.0351 µM (active)
IGROV-1
  GI50: 0.0209 µM (active)
SN12C
  GI50: 0.0202 µM (active)
786-0
  GI50: 0.0156 µM (active)
SK-MEL-2
  GI50: 0.0436 µM (active)
HCT-15
  GI50: 0.0327 µM

## Cn1c(=S)c2nc(SCCCc3ccccc3)[nH]c2n(C)c1=O
SF-539
  GI50: 27.9 µM (inactive)
COLO 205
  GI50: 12.6 µM (inactive)
K562
  GI50: 19.7 µM (inactive)
SK-MEL-5
  GI50: 6.67 µM (inactive)
HOP-62
  GI50: 17.3 µM (inactive)
SR
  GI50: 4.85 µM (inactive)
SK-MEL-28
  GI50: 46.6 µM (inactive)
NCI-H226
  GI50: 21.5 µM (inactive)
UO-31
  GI50: 14.4 µM (inactive)
OVCAR-5
  GI50: 20.7 µM (inactive)
A498
  GI50: 18.4 µM (inactive)
HT-29
  GI50: 22.8 µM (inactive)
CAKI-1
  GI50: 20.9 µM (inactive)
MOLT-4
  GI50: 13.5 µM (inactive)
SK-OV-3
  GI50: 42.2 µM (inactive)
IGROV-1
  GI50: 35.6 µM (inactive)
SN12C
  GI50: 26.5 µM (inactive)
786-0
  GI50: 25.1 µM (inactive)
SK-MEL-2
  GI50: 40.8 µM (inactive)
HCT-15
  GI50: 29.8 µM

## COc1ccc(/C=N/N=C(\N)NO)c(OC)c1OC
SF-539
  GI50: 25.2 µM (inactive)
COLO 205
  GI50: 19.1 µM (inactive)
K562
  GI50: 23.2 µM (inactive)
SK-MEL-5
  GI50: 24.6 µM (inactive)
HOP-62
  GI50: 32.7 µM (inactive)
SR
  GI50: 25 µM (inactive)
SK-MEL-28
  GI50: > 100 µM (inactive)
NCI-H226
  GI50: 23.4 µM (inactive)
UO-31
  GI50: 20.8 µM (inactive)
OVCAR-5
  GI50: 23.4 µM (inactive)
A498
  GI50: 26.7 µM (inactive)
HT-29
  GI50: 20.8 µM (inactive)
CAKI-1
  GI50: 54.3 µM (inactive)
MOLT-4
  GI50: 42.3 µM (inactive)
SK-OV-3
  GI50: 51.4 µM (inactive)
IGROV-1
  GI50: 36.6 µM (inactive)
SN12C
  GI50: 34.4 µM (inactive)
786-0
  GI50: 18.5 µM (inactive)
SK-MEL-2
  GI50: 25.6 µM (inactive)
HCT-15
  GI50: 35.2 µM

## [N-]=[N+]=C1C(=O)C2CC3CC(C2)CC1C3
SF-539
  GI50: > 100 µM (inactive)
COLO 205
  GI50: > 100 µM (inactive)
K562
  GI50: > 100 µM (inactive)
SK-MEL-5
  GI50: > 100 µM (inactive)
HOP-62
  GI50: > 100 µM (inactive)
SR
  GI50: > 100 µM (inactive)
SK-MEL-28
  GI50: > 100 µM (inactive)
NCI-H226
  GI50: > 100 µM (inactive)
UO-31
  GI50: > 100 µM (inactive)
OVCAR-5
  GI50: > 100 µM (inactive)
A498
  GI50: > 100 µM (inactive)
HT-29
  GI50: > 100 µM (inactive)
CAKI-1
  GI50: > 100 µM (inactive)
MOLT-4
  GI50: > 100 µM (inactive)
SK-OV-3
  GI50: > 100 µM (inactive)
IGROV-1
  GI50: > 100 µM (inactive)
SN12C
  GI50: > 100 µM (inactive)
786-0
  GI50: > 100 µM (inactive)
SK-MEL-2
  GI50: > 100 µM (inactive)
HCT-15
  GI50: > 100 µM

## Cc1nc2cc(/N=N/c3c(O)ccc4ccccc34)ccc2[nH]1
SF-539
  GI50: 26.7 µM (inactive)
COLO 205
  GI50: 29.5 µM (inactive)
K562
  GI50: 23.9 µM (inactive)
SK-MEL-5
  GI50: 31.9 µM (inactive)
HOP-62
  GI50: > 64.7 µM (inactive)
SR
  GI50: 24.2 µM (inactive)
SK-MEL-28
  GI50: 98.6 µM (inactive)
NCI-H226
  GI50: > 62.2 µM (inactive)
UO-31
  GI50: 45.1 µM (inactive)
OVCAR-5
  GI50: > 75.5 µM (inactive)
A498
  GI50: > 55 µM (inactive)
HT-29
  GI50: 40.6 µM (inactive)
CAKI-1
  GI50: 26.6 µM (inactive)
MOLT-4
  GI50: 21 µM (inactive)
SK-OV-3
  GI50: > 100 µM (inactive)
IGROV-1
  GI50: > 45.3 µM (inactive)
SN12C
  GI50: 36.9 µM (inactive)
786-0
  GI50: 22 µM (inactive)
SK-MEL-2
  GI50: 42.2 µM (inactive)
HCT-15
  GI50: 32.3 µM

## CC(=O)OC12CC[N+]3(C)CCCCC3C1=Nc1ccccc12 (stereo not given)
SF-539
  GI50: > 100 µM (inactive)
COLO 205
  GI50: 61 µM (inactive)
K562
  GI50: > 100 µM (inactive)
SK-MEL-5
  GI50: > 100 µM (inactive)
HOP-62
  GI50: > 100 µM (inactive)
SR
  GI50: > 100 µM (inactive)
SK-MEL-28
  GI50: > 100 µM (inactive)
NCI-H226
  GI50: > 100 µM (inactive)
UO-31
  GI50: > 100 µM (inactive)
OVCAR-5
  GI50: > 100 µM (inactive)
A498
  GI50: 80.2 µM (inactive)
HT-29
  GI50: 63.8 µM (inactive)
CAKI-1
  GI50: > 100 µM (inactive)
MOLT-4
  GI50: > 100 µM (inactive)
SK-OV-3
  GI50: > 100 µM (inactive)
IGROV-1
  GI50: > 100 µM (inactive)
SN12C
  GI50: > 100 µM (inactive)
786-0
  GI50: > 100 µM (inactive)
SK-MEL-2
  GI50: > 100 µM (inactive)
HCT-15
  GI50: > 100 µM
